The assay has as its target T1, pig T1R2–T1R3 (Sus scrofa, UniProt I1ZBR6+Q0EF93).
T1 construct: gene TAS1R2; heterodimer; full-length, custom-synthesised genes in modified pcDNA3/TO; N-terminal rat sst3 tags, C-terminal FLAG or HSV tags; HEK293PEAKrapid cells stably expressing Galpha15
T1 sequence (I1ZBR6 20-835): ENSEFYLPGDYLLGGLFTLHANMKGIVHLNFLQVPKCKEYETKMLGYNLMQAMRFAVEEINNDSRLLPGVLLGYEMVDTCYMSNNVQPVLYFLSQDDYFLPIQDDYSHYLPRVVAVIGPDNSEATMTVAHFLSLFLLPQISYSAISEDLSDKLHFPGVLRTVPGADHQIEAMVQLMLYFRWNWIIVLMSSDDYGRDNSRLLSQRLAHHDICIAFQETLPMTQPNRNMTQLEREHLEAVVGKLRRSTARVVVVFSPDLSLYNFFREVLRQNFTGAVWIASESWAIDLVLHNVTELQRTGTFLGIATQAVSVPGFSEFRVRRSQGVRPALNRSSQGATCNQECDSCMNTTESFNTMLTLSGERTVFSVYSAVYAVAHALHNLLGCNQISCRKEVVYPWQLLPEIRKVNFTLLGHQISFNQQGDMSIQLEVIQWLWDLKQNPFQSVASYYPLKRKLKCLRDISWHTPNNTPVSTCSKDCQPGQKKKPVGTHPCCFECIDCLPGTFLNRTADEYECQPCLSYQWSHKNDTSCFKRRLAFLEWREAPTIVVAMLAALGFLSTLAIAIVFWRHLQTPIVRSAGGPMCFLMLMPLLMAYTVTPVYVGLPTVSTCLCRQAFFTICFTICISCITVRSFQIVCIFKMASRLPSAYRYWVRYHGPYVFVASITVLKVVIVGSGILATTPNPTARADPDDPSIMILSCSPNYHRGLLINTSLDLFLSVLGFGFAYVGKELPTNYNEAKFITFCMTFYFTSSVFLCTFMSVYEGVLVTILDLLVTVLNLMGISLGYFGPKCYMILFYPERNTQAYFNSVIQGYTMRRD
T1 sequence (Q0EF93 19-855): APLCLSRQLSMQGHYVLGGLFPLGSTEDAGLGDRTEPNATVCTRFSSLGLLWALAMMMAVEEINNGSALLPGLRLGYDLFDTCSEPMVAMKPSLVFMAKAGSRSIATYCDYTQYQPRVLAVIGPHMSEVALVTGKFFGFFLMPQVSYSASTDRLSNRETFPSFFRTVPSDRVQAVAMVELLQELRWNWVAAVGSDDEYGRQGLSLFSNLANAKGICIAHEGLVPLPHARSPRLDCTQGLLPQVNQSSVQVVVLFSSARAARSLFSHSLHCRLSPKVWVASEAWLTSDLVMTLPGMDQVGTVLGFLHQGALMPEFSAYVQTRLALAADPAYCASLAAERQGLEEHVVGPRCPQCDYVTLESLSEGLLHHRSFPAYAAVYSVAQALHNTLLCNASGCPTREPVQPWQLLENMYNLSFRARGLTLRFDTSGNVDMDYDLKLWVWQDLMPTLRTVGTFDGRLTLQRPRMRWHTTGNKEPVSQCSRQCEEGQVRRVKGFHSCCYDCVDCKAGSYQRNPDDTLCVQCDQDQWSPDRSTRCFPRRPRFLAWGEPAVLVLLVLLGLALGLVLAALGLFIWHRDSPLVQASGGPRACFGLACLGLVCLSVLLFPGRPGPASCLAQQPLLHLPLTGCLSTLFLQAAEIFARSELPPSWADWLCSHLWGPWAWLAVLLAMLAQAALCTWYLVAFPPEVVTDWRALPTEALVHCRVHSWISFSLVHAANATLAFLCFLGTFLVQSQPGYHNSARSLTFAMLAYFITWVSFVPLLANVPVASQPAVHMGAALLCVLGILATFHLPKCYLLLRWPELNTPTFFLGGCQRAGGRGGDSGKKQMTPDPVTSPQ
Description: calcium mobilisation (Fluo-4), FlexStation3. It is filed as cell-based. The following applies: agonist; transfected HEK293PEAKrapid Galpha15 cells; mock-transfected control; curves in mg/mL. On the technique in general: Calcium flux is commonly read through the fluorescence of an indicator in the cells.

For `COc1cc(C=O)ccc1O` [vanillin], the EC50 entry was “activation in response to stimulation with either each sweetener component of SMF (A)”.
